The target of the assay is T1, Recombinant human LTC4 synthase (Homo sapiens, UniProt Q16873).
T1 construct: made in house; host or cells: Pichia pastoris ('Piccia pastoralis' [sic])
T1 sequence (Q16873 1-150): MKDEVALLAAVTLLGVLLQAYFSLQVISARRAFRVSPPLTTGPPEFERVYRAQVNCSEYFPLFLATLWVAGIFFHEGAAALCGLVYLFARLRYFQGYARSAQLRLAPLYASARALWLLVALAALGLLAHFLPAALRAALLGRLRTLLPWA
Put plainly: LTC4 synthase in vitro assay (LTA4 to LTC4, HTRF detection). Particulars: for inhibition at 10 µM: 5 min, total concentration of title compound in the assay 10 μM. Format: biochemical. As for the experimental part:
In the assay, LTC4 synthase catalyses the reaction where the substrate LTA4 is converted to LTC4. Recombinant human LTC4 synthase is expressed in Piccia pastoralis and the purified enzyme is dissolved in 25 mM tris-buffer pH 7.8 supplemented with 0.1 mM glutathione (GSH) and stored at −80° C. The assay is performed in phosphate buffered saline (PBS) pH 7.4 and 5 mM GSH in 384-well plates.
The following is added chronologically to each well:
1.48 μL LTC4 synthase in PBS with 5 mM GSH. The total protein concentration in this solution is 0.5 μg/mL. 2. 1 μL inhibitor in DMSO (final concentration 10 μM). 3. Incubation of the plate at room temperature for 10 min. 4. 1 μL LTA4 (final concentration 2.5 μM). 5. Incubation of the plate at room temperature for 5 min. 6. 10 μL of the incubation mixture is analysed using homogenous time resolved fluorescent (HTRF) detection.
(In general: TR-FRET usually uses a lanthanide donor and a delayed reading to cut background.)

pIC50: −log10 of the molar value.

In the case of `CON=C(c1ccc(Oc2ccccc2)c(C(=O)O)c1)c1ccc(N(CC2CC2)c2ccc(Cl)cc2)cn1` (mixture of isomers) [Example 13, 5-({5-[(4-Chlorophenyl)(cyclopropylmethyl)amino]-2-pyridyl}(methoxyimino)-methyl)-2-phenoxybenzoic acid], the pIC50 (as a rule, the IC50 on a negative log10 scale, so that one unit is a factor of ten) was 6.62. Turning to `O=C(O)c1cc(C(=NO)c2ccc(N(CC3CC3)c3ccc(Cl)cc3)cn2)ccc1Oc1ccccc1` (mixture of isomers) [Example 14, 5-({5-[(4-Chlorophenyl)(cyclopropylmethyl)amino]-2-pyridyl}(hydroxyimino)-methyl)-2-phenoxybenzoic acid], the negative logarithm of the IC50 (pIC50) is 5.95. Regarding `CN(c1ccc(Cl)cc1)c1ccc(C(=O)c2ccc(Oc3ccccc3)c(C(=O)O)c2)nc1` [1:1, 5-{5-[(4-Chlorophenyl)(methyl)amino]picolinoyl}-2-phenoxybenzoic acid], the pIC50 is 6.96 and the inhibition (in general, how much of the control response was suppressed) at 10 µM stood at 98%. On to `CN(c1ccc(Cl)cc1)c1ccc(C(=O)c2ccc(Oc3ccc(F)c(F)c3)c(C(=O)O)c2)nc1` [1:2, 5-{5-[(4-Chlorophenyl)(methyl)amino]picolinoyl}-2-(3,4-difluorophenoxy)benzoic acid], for which the negative-log IC50 (pIC50) was 6.98 and the inhibition at 10 µM was found to be 98%. For the compound `CN(c1ccc(Cl)cc1)c1ccc(C(=O)c2ccc(Oc3cccc(Cl)c3)c(C(=O)O)c2)nc1` [1:3, 2-(3-Chlorophenoxy)-5-{5-[(4-chlorophenyl)(methyl)amino]picolinoyl}benzoic acid], the pIC50 is 6.91 and the inhibition at 10 µM was 98%. With `O=C(c1ccc(Oc2ccccc2)c(C(=O)O)c1)c1ccc(N(CC2CC2)c2ccc(Cl)cc2)cn1` [1:4, 5-{5-[(4-Chlorophenyl)(cyclopropylmethyl)amino]picolinoyl}-2-phenoxybenzoic acid], the pIC50 is 7.21 and the inhibition at 10 µM is 100%. Regarding `O=C(c1ccc(Oc2ccccc2)c(C(=O)O)c1)c1ccc(N(CC2CCC2)c2ccc(Cl)cc2)cn1` [1:5, 5-{5-[(4-Chlorophenyl)(cyclobutylmethyl)amino]picolinoyl}-2-phenoxybenzoic acid], the negative logarithm of the IC50 (pIC50) was 7.15 and the inhibition at 10 µM is 100%. Regarding `O=C(c1ccc(Oc2ccccc2)c(C(=O)O)c1)c1ccc(N(CC2CCCC2)c2ccc(Cl)cc2)cn1` [1:6, 5-{5-[(4-Chlorophenyl)(cyclopentylmethyl)amino]picolinoyl}-2-phenoxybenzoic acid], the pIC50 is 7.21 and the inhibition at 10 µM was found to be 100%. Consider `CCOCCN(c1ccc(Cl)cc1)c1ccc(C(=O)c2ccc(Oc3ccccc3)c(C(=O)O)c2)nc1` [1:7, 5-{5-[(4-Chlorophenyl)(2-ethoxyethyl)amino]picolinoyl}-2-phenoxybenzoic acid], for which the negative-log IC50 (pIC50) is 6.77 and the inhibition at 10 µM was found to be 99%.

Take `C=CCN(c1ccc(Cl)cc1)c1ccc(C(=O)c2ccc(Oc3ccccc3)c(C(=O)O)c2)nc1` [1:8, 5-{5-[(Allyl)(4-chlorophenyl)amino]picolinoyl}-2-phenoxybenzoic acid]: the pIC50 was 7.06 and the inhibition at 10 µM amounted to 100%. The matching figures for `C#CCN(c1ccc(Cl)cc1)c1ccc(C(=O)c2ccc(Oc3ccccc3)c(C(=O)O)c2)nc1` [1:9, 5-{5-[(4-Chlorophenyl)(2-propynyl)amino]picolinoyl}-2-phenoxybenzoic acid]: 7.32 and 99%. `N#CCCCN(c1ccc(Cl)cc1)c1ccc(C(=O)c2ccc(Oc3ccccc3)c(C(=O)O)c2)nc1` [1:10, 5-{5-[(4-Chlorophenyl)(3-cyanopropyl)amino]picolinoyl}-2-phenoxybenzoic acid]: the pIC50 was 6.36 and the inhibition at 10 µM is 98%. For the compound `CN(c1ccc(C(=O)c2ccc(Oc3ccccc3)c(C(=O)O)c2)nc1)c1cccc(C(F)(F)F)c1` [1:11, 5-{5-[(Methyl)(3-trifluoromethylphenyl)amino]picolinoyl}-2-phenoxybenzoic acid], the pIC50 was 6.75 and the inhibition at 10 µM came out at 99%. Take `CCN(c1ccc(C(=O)c2ccc(Oc3ccccc3)c(C(=O)O)c2)nc1)c1cccc(C(F)(F)F)c1` [1:12, 5-{5-[(Ethyl)(3-trifluoromethylphenyl)amino]picolinoyl}-2-phenoxybenzoic acid]: the negative-log IC50 (pIC50) is 6.61 and the inhibition at 10 µM was determined as 100%. Regarding `C=CCN(c1ccc(C(F)(F)F)cc1)c1ccc(C(=O)c2ccc(Oc3ccccc3)c(C(=O)O)c2)nc1` [1:13, 5-{5-[(Allyl)(4-trifluoromethylphenyl)amino]picolinoyl}-2-phenoxybenzoic acid], the pIC50 is 6.54 and the inhibition at 10 µM was found to be 99%. With `O=C(c1ccc(Oc2ccccc2)c(C(=O)O)c1)c1ccc(N(CC2CC2)c2cccc(C(F)(F)F)c2)cn1` [1:14, 5-{5-[(Cyclopropylmethyl)(3-trifluoromethylphenyl)amino]picolinoyl}-2-phenoxybenzoic acid], the pIC50 was 6.71 and the inhibition at 10 µM is 100%. As for `CN(c1ccc(C(F)(F)F)cc1)c1ccc(C(=O)c2ccc(Oc3ccccc3)c(C(=O)O)c2)nc1` [1:15, 5-{5-[(Methyl)(4-trifluoromethylphenyl)amino]picolinoyl}-2-phenoxybenzoic acid], the negative logarithm of the IC50 (pIC50) is 6.33 and the inhibition at 10 µM was determined as 99%. For the compound `CN(c1ccc(C(=O)c2ccc(Oc3ccccc3)c(C(=O)O)c2)nc1)c1ccc(F)c(F)c1` [1:16, 5-{5-[(3,4-Difluorophenyl)(methyl)amino]picolinoyl}-2-phenoxybenzoic acid], the pIC50 is 6.41 and the inhibition at 10 µM came out at 98%.

For the compound `CN(c1ccc(C(C)(C)C)cc1)c1ccc(C(=O)c2ccc(Oc3ccccc3)c(C(=O)O)c2)nc1` [1:17, 5-{5-[(4-tert-Butylphenyl)(methyl)amino]picolinoyl}-2-phenoxybenzoic acid], the negative-log IC50 (pIC50) was 5.88 and the inhibition at 10 µM is 96%.

`O=C(c1ccc(Oc2ccccc2)c(C(=O)O)c1)c1ccc(N(CC2CC2)c2ccc(C(F)(F)F)cc2)cn1` [1:18, 5-{5-[(Cycloropylmethyl)(4-trifluoromethylphenyl)amino]picolinoyl}-2-phenoxybenzoic acid]: the negative logarithm of the IC50 (pIC50) is 6.85 and the inhibition at 10 µM was 100%. In the case of `O=C(c1ccc(Oc2ccccc2)c(C(=O)O)c1)c1ccc(N(CC2CC2)c2ccc(F)c(F)c2)cn1` [1:19, 5-{5-[(Cyclopropylmethyl)(3,4-difluorophenyl)amino]picolinoyl}-2-phenoxybenzoic acid], the pIC50 was 6.89 and the inhibition at 10 µM was found to be 100%. Turning to `CC(C)(C)c1ccc(N(CC2CC2)c2ccc(C(=O)c3ccc(Oc4ccccc4)c(C(=O)O)c3)nc2)cc1` [1:20, 5-{5-[(4-tert-Butylphenyl)(cyclopropylmethyl)amino]picolinoyl}-2-phenoxybenzoic acid], the negative logarithm of the IC50 (pIC50) is 6.26 and the inhibition at 10 µM came out at 100%. On to `C=CCN(c1ccc(C(=O)c2ccc(Oc3ccccc3)c(C(=O)O)c2)nc1)c1ccc(F)c(F)c1` [1:21, 5-{5-[(Allyl)(3,4-difluorophenyl)amino]picolinoyl}-2-phenoxybenzoic acid], for which the pIC50 was 6.53 and the inhibition at 10 µM amounted to 99%.

`CCN(c1ccc(C(C)(C)C)cc1)c1ccc(C(=O)c2ccc(Oc3ccccc3)c(C(=O)O)c2)nc1` [1:22, 5-{5-[(4-tert-Butylphenyl)(ethyl)amino]picolinoyl}-2-phenoxybenzoic acid]: the pIC50 is 5.91 and the inhibition at 10 µM is 99%. In the case of `CSc1ccccc1Oc1ccc(C(=O)c2ccc(N(C)c3ccc(Cl)cc3)cn2)cc1C(=O)O` [1:23, 5-{5-[(4-Chlorophenyl)(methyl)amino]picolinoyl}-2-(2-methylsulfanylphenoxy)benzoic acid], the negative-log IC50 (pIC50) is 6.44 and the inhibition at 10 µM came out at 100%.

As to `CN(c1ccc(Cl)cc1)c1ccc(C(=O)c2ccc(Oc3cccnc3)c(C(=O)O)c2)nc1` [1:24, 5-{5-[(4-Chlorophenyl)(methyl)amino]picolinoyl}-2-(3-pyridyloxy)benzoic acid], the negative logarithm of the IC50 (pIC50) was 5.94 and the inhibition at 10 µM came out at 86%. As for `COc1ccc(Oc2ccc(C(=O)c3ccc(N(CC4CC4)c4ccc(Cl)cc4)cn3)cc2C(=O)O)cc1` [1:25, 5-{5-[(4-Chlorophenyl)(cyclopropylmethyl)amino]picolinoyl}-2-(4-methoxyphenoxy)benzoic acid], the negative logarithm of the IC50 (pIC50) is 7.03. With `O=C(c1ccc(Oc2ccc(Cl)c(Cl)c2)c(C(=O)O)c1)c1ccc(N(CC2CC2)c2ccc(Cl)cc2)cn1` [1:26, 5-{5-[(4-Chlorophenyl)(cyclopropylmethyl)amino]picolinoyl}-2-(3,4-dichlorophenoxy)benzoic acid], the negative logarithm of the IC50 (pIC50) is 7.14. As to `O=C(c1ccc(Oc2ccc(F)cc2)c(C(=O)O)c1)c1ccc(N(CC2CC2)c2ccc(Cl)cc2)cn1` [1:27, 5-{5-[(4-Chlorophenyl)(cyclopropylmethyl)amino]picolinoyl}-2-(4-fluorophenoxy)-benzoic acid], the negative-log IC50 (pIC50) was 7.28. Regarding `O=C(c1ccc(Oc2ccccc2O)c(C(=O)O)c1)c1ccc(N(CC2CC2)c2ccc(Cl)cc2)cn1` [1:28, 5-{5-[(4-Chlorophenyl)(cyclopropylmethyl)amino]picolinoyl}-2-(2-hydroxyphenoxy)benzoic acid], the pIC50 is 7.36.

The record behind these values is patent US20120004244A1, “Bis Aromatic Compounds for Use as LTC4 Synthase Inhibitors” (BIOLIPOX AB, priority 2009, published 2012).
